# Reference: PubChem BioAssay (NCI)
#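 1) Cells in 96-well plates. 2) Compound, 48 h, 5 concentrations. 3) Linear interpolation between surrounding doses. 4) Unreached endpoint = highest concentration. TGI is the concentration that stops growth completely.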
# What was measured:
# Assay in all cases: NCI tumour cell line growth inhibition, 48 h
# MCF7 breast = system: MCF7 breast
# KM12 colon = system: KM12 colon
# SW-620 colon = system: SW-620 colon
# MDA-MB-231 breast = system: MDA-MB-231 breast
# OVCAR-5 ovarian = system: OVCAR-5 ovarian
# SNB-19 CNS = system: SNB-19 CNS
# U251 CNS = system: U251 CNS
# SK-MEL-28 melanoma = system: SK-MEL-28 melanoma
# IGROV1 ovarian = system: IGROV1 ovarian
# TK-10 renal = system: TK-10 renal
# UACC-257 melanoma = system: UACC-257 melanoma
# HL-60(TB) leukemia = system: HL-60(TB) leukemia
# HOP-92 NSCLC = system: HOP-92 NSCLC
# SF-539 CNS = system: SF-539 CNS
Compound,TGI (MCF7 breast) [µM],TGI (KM12 colon) [µM],TGI (SW-620 colon) [µM],TGI (MDA-MB-231 breast) [µM],TGI (OVCAR-5 ovarian) [µM],TGI (SNB-19 CNS) [µM],TGI (U251 CNS) [µM],TGI (SK-MEL-28 melanoma) [µM],TGI (IGROV1 ovarian) [µM],TGI (TK-10 renal) [µM],TGI (UACC-257 melanoma) [µM],TGI (HL-60(TB) leukemia) [µM],TGI (HOP-92 NSCLC) [µM],TGI (SF-539 CNS) [µM]
CCOC(OCC)[C@H](N)[C@@H](O)[C@@H](O)[C@H]1COC(C)(C)O1,> 100,> 100,> 100,> 100,> 100,> 100,> 100,> 100,> 100,> 100,> 100,–,–,–
Nc1nc(Cc2ccccc2)nc(Cc2ccccc2)c1-c1ccccc1,–,75,> 100,49.1,> 100,> 100,37.1,> 100,> 100,> 100,> 100,60.5,59.6,–
N#Cc1c2ccc([N+](=O)[O-])cc2c(=O)n2c1sc1ccccc12,–,> 100,> 100,49.2,–,36.9,95.4,> 100,–,55.8,> 100,66.1,41.3,–
CO/N=C(\C(=O)[N-][n+]1cnn(CC(=O)O)c1)c1csc(N)n1,> 10,> 10,> 10,> 10,–,–,–,> 10,> 10,> 10,> 10,> 10,> 10,–
COc1cc(C2SCC(=O)N2NC(=O)c2ccc(NC(C)=O)cc2OC)ccc1O (stereo not drawn),> 100,–,> 100,–,65.1,> 100,–,> 100,> 100,–,–,> 100,73.9,> 100
O=C1CN(c2ccccc2)C(=O)CN1CCN1CC(=O)N(c2ccccc2)CC1=O,> 100,> 100,> 100,–,> 100,> 100,> 100,> 100,> 100,> 100,> 100,> 100,> 100,> 100
COc1ccc2c(c1)C(=O)[C@@](Nc1ccc(C=O)cc1)(OC)[C@@](OC)(c1ccc([N+](=O)[O-])cc1)O2,> 10,> 10,> 10,> 10,> 10,> 10,> 10,> 10,> 10,> 10,> 10,> 10,–,> 10
COc1ccc2c(c1)c(=O)c1c(NCCCN(C)C)ccc3ncn2c31,8.4,15.5,15.3,–,25.5,20.5,5.93,26.4,21.2,20.1,27,25.1,19.5,17
CS(=O)(=O)CCC(N)P(=O)(O)O (stereo not drawn),> 100,> 100,> 100,–,> 100,> 100,> 100,> 100,> 100,> 100,> 100,> 100,> 100,–
